Experimental data taken from article PMC10059712, “Structure Elucidation of Two Intriguing Neo-Debromoaplysiatoxin Derivatives from Marine Cyanobacterium Lyngbya sp. Showing Strong Inhibition of Kv1.5 Potassium Channel and Differential Cytotoxicity” (Molecules, 2023).

Biological target: T1, Kv1.5 K+ channel (Homo sapiens, UniProt P22460)
T1 construct: gene KCNA5; human Kv1.5 stably expressed in LTK cells (LTK-Kv1.5)
Test: patch clamp of Kv1.[…] currents in LTK-Kv1.[…] cells
Type: cell-based

T1 sequence (P22460 whole entry): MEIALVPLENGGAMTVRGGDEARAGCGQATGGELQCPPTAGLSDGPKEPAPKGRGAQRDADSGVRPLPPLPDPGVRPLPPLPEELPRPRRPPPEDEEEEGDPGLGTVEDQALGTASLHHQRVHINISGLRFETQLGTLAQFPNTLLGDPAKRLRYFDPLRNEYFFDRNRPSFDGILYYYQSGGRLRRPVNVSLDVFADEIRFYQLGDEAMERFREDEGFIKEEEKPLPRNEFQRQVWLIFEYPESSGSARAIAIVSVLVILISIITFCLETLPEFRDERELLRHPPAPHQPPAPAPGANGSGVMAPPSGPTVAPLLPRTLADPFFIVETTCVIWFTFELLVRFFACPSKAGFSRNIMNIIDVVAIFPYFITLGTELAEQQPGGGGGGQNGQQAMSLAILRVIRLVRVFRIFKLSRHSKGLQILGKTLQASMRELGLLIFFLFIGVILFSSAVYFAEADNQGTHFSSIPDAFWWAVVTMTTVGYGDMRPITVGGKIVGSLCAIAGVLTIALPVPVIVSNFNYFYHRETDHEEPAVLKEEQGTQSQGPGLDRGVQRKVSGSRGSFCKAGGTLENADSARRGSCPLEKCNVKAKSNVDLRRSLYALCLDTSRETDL

`CO[C@@H](CC[C@H](C)[C@H]1O[C@]2(O)[C@H]3[C@@H](OC(=O)C[C@]3(O)[C@H](C)CC2(C)C)[C@@H]1C)c1cccc(O)c1` [compound 1, neo-debromoaplysiatoxin I] was tested, and the IC50 was 2590 ± 370 nM.

`CO[C@@H](CC[C@H](C)[C@H]1O[C@]23C[C@H](OC(=O)C[C@H]([C@@H](C)O)OC(=O)CC(=O)C(C)(CC2(C)C)OO3)[C@@H]1C)c1cccc(O)c1` [compound 2, neo-debromoaplysiatoxin J] was tested, and the IC50 was 1640 ± 150 nM.
